IC50 and effect on viability data for two compounds are collected here from patent publication US20130017265A1, “PARTICLES FOR MULTIPLE AGENT DELIVERY” (MASSACHUSETTS INSTITUTE OF TECHNOLOGY, priority 2009, published 2013).

One assay has as its system LNCaP cells. Nature of the assay: MTT cytotoxicity assay, LNCaP cells. The format is cell-based, human. To be noted: for IC50: MTT, 12 hours treatment, further 48 hours, [Pt] = 25 * [Doce]. Here is the method:
(§1) The ability of the targeted drug releasing construct nanoparticles to promote cell death was determined using the MTT assay using human prostate cancer LNCaP and PC3 cells and compared against the standard compounds cisplatin and the Pt(IV)-monosuccinate prodrug. Human prostate cancer LNCaP and PC3 cells were obtained from the ATCC. […] The cells were incubated at 37° C. in 5% CO2 in RPMI growth medium supplemented with 10% fetal bovine serum and 1% penicillin/streptomycin. The cells were passaged every 3 to 4 days and restarted from the frozen stock upon reaching passage number 20. Cytotoxic activity of the constructs was evaluated using the MTT assay. Solutions of the different constructs were freshly prepared in sterile PBS before use. All platinum constructs were quantified by atomic absorption spectroscopy. LNCaP and PC3 cells were seeded on a 96-well plate in 100 μL RPMI media and incubated for 24 hours.
(§2) The cells were then treated with different constructs at varying concentrations and incubated for 12 hours at 37° C. Fresh medium was replaced after 12 hours incubation with nanoparticles, and the cells were incubated for a further 48 hours. The cells were then treated with 20 μL of 3-(4,5-dimethylthiazol-2-yl)-2,5-diphenyltetrazolium bromide (MTT) (5 mg/mL in PBS) and incubated for 5 hours. The medium was removed, the cells were lysed by adding 100 μL of DMSO, and the absorbance of the purple formazan was recorded at 550 nm using a microplate spectrophotometer. Each sample was assayed in triplicate in three independent experiments for each cell line.
(Tetrazolium dyes change colour on reduction, which living cells bring about.)

The subject of the next assay is PC3 cells. Description: MTT cytotoxicity assay, PC3 cells. It counts as cell-based, human. To be noted: for IC50: MTT, 12 hours treatment, further 48 hours, [Pt] = 25 * [Doce]. Here is the method:
as §1, §2

Broadly, the IC50 is the concentration at which inhibition is half-maximal. In the case of `N.N.[Cl][Pt][Cl]` [Cisplatin], the IC50 is > 5 µM with LNCaP cells and 9.9 µM in the assay on PC3 cells.
For “c,c,t[Pt(NH3)Cl2(OH)(succinate)] [Pt-Monosuccinate]”, the effect on viability entry in the assay with LNCaP cells (LNCaP cells, compared with cisplatin, PolyPt-NP, PolyPt-NP-Apt) is reported as “least effect on viability”; in the assay on PC3 cells (PC3 cells, compared with cisplatin, PolyPt-NP, PolyPt-NP-Apt) it was “least effect on viability”. For the same compound, the values for the IC50 in the assay with LNCaP cells and in the assay with PC3 cells were 106 µM and 36 µM, respectively.
